SMILES strings stand for the structures.

A word on the Ki: it is the equilibrium dissociation constant of an inhibitor or competing ligand from its target.

This test has as its target T1, recombinant human NK3 receptor (Homo sapiens, UniProt P29371).
T1 construct: expressed in transfected cells; host or cells: HEK293 cells (transient expression), membranes
T1 sequence (P29371 1-465): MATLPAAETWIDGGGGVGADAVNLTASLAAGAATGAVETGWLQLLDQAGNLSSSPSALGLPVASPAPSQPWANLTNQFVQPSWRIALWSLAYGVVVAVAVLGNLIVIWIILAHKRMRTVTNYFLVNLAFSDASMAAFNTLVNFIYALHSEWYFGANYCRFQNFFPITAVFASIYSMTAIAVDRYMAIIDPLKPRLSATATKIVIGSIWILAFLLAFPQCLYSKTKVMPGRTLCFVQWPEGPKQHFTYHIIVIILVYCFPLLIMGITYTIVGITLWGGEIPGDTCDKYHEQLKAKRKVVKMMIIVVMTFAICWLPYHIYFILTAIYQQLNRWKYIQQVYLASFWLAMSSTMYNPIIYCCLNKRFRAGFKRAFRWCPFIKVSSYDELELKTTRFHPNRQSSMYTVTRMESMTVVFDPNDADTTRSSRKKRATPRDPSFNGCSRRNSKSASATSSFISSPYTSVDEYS
Briefly: [3H]SR142801 competition binding assay. The conditions noted are these: [3H]SR142801, membranes from HEK293 cells transiently expressing recombinant human NK3 receptor; read-out: hNK3 Ki. How it is done: [^3H]SR142801 Competition Binding Assay
hNK3 receptor binding experiment were performed using [^3H]SR142801 (Catalog No. TRK1035, specific activity: 74.0 Ci/mmol, Amersham, GE Healthcare UK limited, Buckinghamshire, UK) and membrane isolated from HEK293 cells transiently expressing recombinant human NK3 receptor. After thawing, the membrane homogenates were centrifuged at 48,000×g for 10 min at 4° C., the pellets were resuspended in the 50 mM Tris-HCl, 4 mM MnCl2, 1 μM phosphoramidon, 0.1% BSA binding buffer at pH 7.4 to a final assay concentration of 5 μg protein/well. For inhibition experiments, membranes were incubated with [^3H]SR142801 at a concentration equal to KD value of radioligand and 10 concentrations of the inhibitory compound (0.0003-10 μM) (in a total reaction volume of 500 μl) for 75 min at room temperature (RT). At the end of the incubation, membranes were filtered onto unitfilter (96-well white microplate with bonded GF/C filter preincubated 1 h in 0.3% PEI+0.3% BSA, Packard BioScience, Meriden, Conn.) with a Filtermate 196 harvester (Packard BioScience) and washed 4 times with ice-cold 50 mM Tris-HCl, pH 7.4 buffer. Nonspecific binding was measured in the presence of 10 μM SB222200 for both radioligands. The radioactivity on the filter was counted (5 min) on a Packard Top-count microplate scintillation counter with quenching correction after addition of 45 μl of microscint 40 (Canberra Packard S. A., Zürich, Switzerland) and shaking for 1 h. Inhibition curves were fitted according to the Hill equation: y=100/(1+(x/IC50)^nH), where nH=slope factor using Excel-fit 4 software (Microsoft). IC50 values were derived from the inhibition curve and the affinity constant (Ki) values were calculated using the Cheng-Prussoff equation Ki=IC50/(1+[L]/KD) where [L] is the concentration of radioligand and KD is its dissociation constant at the receptor, derived from the saturation isotherm. All experiments were performed in duplicate and the mean±standard error (SEM) of the individual Ki values was calculated.
With `C[C@@H]1CN(CCC(C)(C(=O)NCc2ccc(Cl)c(Cl)c2)c2ccc(Cl)c(Cl)c2)CCN1S(C)(=O)=O` (stereo partly drawn) [Example 42, N-(3,4-Dichloro-benzyl)-2-(3,4-dichloro-phenyl)-4-((R)-4-methanesulfonyl-3-methyl-piperazin-1-yl)-2-methyl-butyramide], the Ki is 0.0057 µM.

In the case of `C[C@@H]1CN(CCC(C)(C(=O)NCc2cccc(OC(F)F)c2)c2ccc(Cl)c(Cl)c2)CCN1S(C)(=O)=O` (stereo partly drawn) [Example 43, 2-(3,4-Dichloro-phenyl)-N-(3-difluoromethoxy-benzyl)-4-((R)-4-methanesulfonyl-3-methyl-piperazin-1-yl)-2-methyl-butyramide], the inhibition constant Ki was determined as 0.0999 µM.

For the compound `C[C@@H]1CN(CCC(C)(C(=O)NCc2cc(F)ccc2C(F)(F)F)c2ccc(Cl)c(Cl)c2)CCN1S(C)(=O)=O` (stereo partly drawn) [Example 44, 2-(3,4-Dichloro-phenyl)-N-(5-fluoro-2-trifluoromethyl-benzyl)-4-((R)-4-methanesulfonyl-3-methyl-piperazin-1-yl)-2-methyl-butyramide], the inhibitory constant (Ki) worked out at 0.212 µM.

For `C[C@@H]1CN(CCC(C)(C(=O)NCc2ccc(C(F)(F)F)cc2)c2ccc(Cl)c(Cl)c2)CCN1S(C)(=O)=O` (stereo partly drawn) [Example 45, 2-(3,4-Dichloro-phenyl)-4-((R)-4-methanesulfonyl-3-methyl-piperazin-1-yl)-2-methyl-N-(4-trifluoromethyl-benzyl)-butyramide], the inhibition constant Ki was determined as 0.0333 µM.

For `C[C@@H]1CN(CCC(C)(C(=O)NCc2cc(C(F)(F)F)ccc2F)c2ccc(Cl)c(Cl)c2)CCN1S(C)(=O)=O` (stereo partly drawn) [Example 46, 2-(3,4-Dichloro-phenyl)-N-(2-fluoro-5-trifluoromethyl-benzyl)-4-((R)-4-methanesulfonyl-3-methyl-piperazin-1-yl)-2-methyl-butyramide], the Ki was 0.0995 µM.

Regarding `CC(NC(=O)C(C)(CCN1CCN(S(C)(=O)=O)[C@H](C)C1)c1ccc(Cl)c(Cl)c1)c1ccc(Cl)cc1` (stereo partly drawn) [Example 47, N-[1-(4-Chloro-phenyl)-ethyl]-2-(3,4-dichloro-phenyl)-4-((R)-4-methanesulfonyl-3-methyl-piperazin-1-yl)-2-methyl-butyramide], the Ki is 0.0159 µM.

Regarding `COc1cccc(CN(C)C(=O)C(C)(CCN2CCN(S(C)(=O)=O)[C@H](C)C2)c2ccc(Cl)c(Cl)c2)c1` (stereo partly drawn) [Example 48, 2-(3,4-Dichloro-phenyl)-4-((R)-4-methanesulfonyl-3-methyl-piperazin-1-yl)-N-(3-methoxy-benzyl)-2,N-dimethyl-butyramide], the inhibition constant (Ki) worked out at 0.263 µM.

Turning to `C[C@@H]1CN(CCC(C)(C(=O)N(C)Cc2ccccc2Cl)c2ccc(Cl)c(Cl)c2)CCN1S(C)(=O)=O` (stereo partly drawn) [Example 49, N-(2-Chloro-benzyl)-2-(3,4-dichloro-phenyl)-4-((R)-4-methanesulfonyl-3-methyl-piperazin-1-yl)-2,N-dimethyl-butyramide], the Ki amounted to 0.088 µM.

For `CC(NC(=O)C(C)(CCN1CCN(S(C)(=O)=O)[C@H](C)C1)c1ccc(Cl)c(Cl)c1)c1ccc(Cl)c(Cl)c1` (stereo partly drawn) [Example 50, 2-(3,4-Dichloro-phenyl)-N-[1-(3,4-dichloro-phenyl)-ethyl]-4-((R)-4-methanesulfonyl-3-methyl-piperazin-1-yl)-2-methyl-butyramide], the inhibition constant Ki is 0.0258 µM.

Take `C[C@@H]1CN(CCC(C)(C(=O)NCc2cccc(OC(F)(F)F)c2)c2ccc(Cl)c(Cl)c2)CCN1S(C)(=O)=O` (stereo partly drawn) [Example 51, 2-(3,4-Dichloro-phenyl)-4-((R)-4-methanesulfonyl-3-methyl-piperazin-1-yl)-2-methyl-N-(3-trifluoromethoxy-benzyl)-butyramide]: the Ki is 0.0146 µM.

On to `C[C@@H]1CN(CCC(C)(C(=O)NCc2ccc(Cl)c(F)c2)c2ccc(Cl)c(Cl)c2)CCN1S(C)(=O)=O` (stereo partly drawn) [Example 52, N-(4-Chloro-3-fluoro-benzyl)-2-(3,4-dichloro-phenyl)-4-((R)-4-methanesulfonyl-3-methyl-piperazin-1-yl)-2-methyl-butyramide], for which the Ki was found to be 0.0464 µM.

For the compound `C[C@@H]1CN(CCC(C)(C(=O)NCc2ccc(OC(F)(F)F)cc2)c2ccc(Cl)c(Cl)c2)CCN1S(C)(=O)=O` (stereo partly drawn) [Example 53, 2-(3,4-Dichloro-phenyl)-4-((R)-4-methanesulfonyl-3-methyl-piperazin-1-yl)-2-methyl-N-(4-trifluoromethoxy-benzyl)-butyramide], the Ki stood at 0.0228 µM.

For the compound `C[C@@H]1CN(CCC(C)(C(=O)NCc2ccc(Cl)c(C(F)(F)F)c2)c2ccc(Cl)c(Cl)c2)CCN1S(C)(=O)=O` (stereo partly drawn) [Example 54, N-(4-Chloro-3-trifluoromethyl-benzyl)-2-(3,4-dichloro-phenyl)-4-((R)-4-methanesulfonyl-3-methyl-piperazin-1-yl)-2-methyl-butyramide], the Ki was 0.0175 µM.

With `C[C@@H]1CN(CCC(C)(C(=O)N(C)Cc2ccc(C(F)(F)F)cc2)c2ccc(Cl)c(Cl)c2)CCN1S(C)(=O)=O` (stereo partly drawn) [Example 55, 2-(3,4-Dichloro-phenyl)-4-((R)-4-methanesulfonyl-3-methyl-piperazin-1-yl)-2,N-dimethyl-N-(4-trifluoromethyl-benzyl)-butyramide], the Ki was 0.0169 µM.

For `C[C@@H]1CN(CCC(C)(C(=O)N(C)Cc2ccc(Cl)cc2)c2ccc(Cl)c(Cl)c2)CCN1S(C)(=O)=O` (stereo partly drawn) [Example 56, N-(4-Chloro-benzyl)-2-(3,4-dichloro-phenyl)-4-((R)-4-methanesulfonyl-3-methyl-piperazin-1-yl)-2,N-dimethyl-butyramide], the Ki was 0.0265 µM.

As to `C[C@@H]1CN(CCC(C)(C(=O)NCc2ccc(C#N)cc2)c2ccc(Cl)c(Cl)c2)CCN1S(C)(=O)=O` (stereo partly drawn) [Example 57, N-(4-Cyano-benzyl)-2-(3,4-dichloro-phenyl)-4-((R)-4-methanesulfonyl-3-methyl-piperazin-1-yl)-2-methyl-butyramide], the inhibitory constant (Ki) was found to be 0.161 µM.

`C[C@@H]1CN(CCC(C)(C(=O)N(C)Cc2cccc(C(F)(F)F)c2)c2ccc(Cl)c(Cl)c2)CCN1S(C)(=O)=O` (stereo partly drawn) [Example 58, 2-(3,4-Dichloro-phenyl)-4-((R)-4-methanesulfonyl-3-methyl-piperazin-1-yl)-2,N-dimethyl-N-(3-trifluoromethyl-benzyl)-butyramide]: the Ki stood at 0.0562 µM.

Consider `C[C@@H]1CN(CCC(C)(C(=O)N(C)Cc2cccc(Cl)c2)c2ccc(Cl)c(Cl)c2)CCN1S(C)(=O)=O` (stereo partly drawn) [Example 59, N-(3-Chloro-benzyl)-2-(3,4-dichloro-phenyl)-4-((R)-4-methanesulfonyl-3-methyl-piperazin-1-yl)-2,N-dimethyl-butyramide], for which the inhibition constant Ki was 0.103 µM.

Turning to `C[C@@H]1CN(CCC(C)(C(=O)N(C)Cc2cccc(F)c2)c2ccc(Cl)c(Cl)c2)CCN1S(C)(=O)=O` (stereo partly drawn) [Example 60, 2-(3,4-Dichloro-phenyl)-N-(3-fluoro-benzyl)-4-((R)-4-methanesulfonyl-3-methyl-piperazin-1-yl)-2,N-dimethyl-butyramide], the inhibition constant Ki worked out at 0.13 µM.

For the compound `C[C@H]1CN(CCC(C)(C(=O)N(C)Cc2ccc(-c3ccncc3)cc2)c2ccc(Cl)c(Cl)c2)CCN1S(C)(=O)=O` (stereo partly drawn) [Example 61, 2-(3,4-Dichloro-phenyl)-4-((S)-4-methanesulfonyl-3-methyl-piperazin-1-yl)-2,N-dimethyl-N-(4-pyridin-4-yl-benzyl)-butyramide], the Ki turned out to be 0.247 µM.

`COc1ccc(CN(C)C(=O)C(C)(CCN2CCN(S(C)(=O)=O)[C@@H](C)C2)c2ccc(Cl)c(Cl)c2)cc1F` (stereo partly drawn) [Example 62, 2-(3,4-Dichloro-phenyl)-N-(3-fluoro-4-methoxy-benzyl)-4-((S)-4-methanesulfonyl-3-methyl-piperazin-1-yl)-2,N-dimethyl-butyramide]: the Ki came out at 0.216 µM.

With `COc1ccc(C(NC(=O)C(C)(CCN2CCN(S(C)(=O)=O)[C@@H](C)C2)c2ccc(Cl)c(Cl)c2)C2CC2)cc1` (stereo partly drawn) [Example 63, N-[Cyclopropyl-(4-methoxy-phenyl)-methyl]-2-(3,4-dichloro-phenyl)-4-((S)-4-methanesulfonyl-3-methyl-piperazin-1-yl)-2-methyl-butyramide], the Ki worked out at 0.0657 µM.

The values above are taken from patent publication US7592345B2, “Piperazine and [1,4]diazepan derivatives as NK antagonists” (Hoffmann-La Roche Inc., priority 2007, dated 2009).
